Source: patent US11117902B2, “Selective estrogen receptor degraders” (Eli Lilly and Company, priority 2018, dated 2021)

Columns and labels:
ERα receptor = ERα receptor (Homo sapiens (Human), UniProt P03372); assay: PRα induction assay in MCF7 cells (ERα agonism); type: cell-based; settings: MCF7 breast cancer cells
Procedure: PRα Induction Assay in MCF7 Cells
The purpose of the following PRα induction assay is to determine whether a test compound has agonistic activity against ERα receptor (an agonist would be expected to activate the receptor).
Culture MCF7 (purchased from ATCC HTB-22) in DMEM media supplemented with 10% FBS, 0.01 mg/mL human insulin 1 and 1% penicillin/streptomycin antibiotics and plate the cells (prior to becoming 70% confluent) in 384-well flat-bottom plates at a density of 4,000 cells per well in 20 μL volume in DMEM phenol red free media containing 10% FBS (charcoal stripped). Incubate the cells overnight in a cell culture incubator (5% CO2, 95% relative humidity at 37° C.) and allow the cells to attach to the plate. The following day, dose the cells with test compound. Use an Echo 555 acoustic dispenser to prepare compound serial dilutions (1:3) in a range from 6 μM to 0.0003 μM. Dose the cells with the addition of the test compound (5 μL) from the serial dilution plate to the cell plate producing a final DMSO concentration of 0.2% with a final concentration of the test compound dose range between 2 and 0.0001 μM. For the maximum point use media containing 0.2% of DMSO and for the minimum point, use fulvestrant diluted at […] final concentrations in the growth media containing 0.2% DMSO. After dosing with the test compound, incubate the cell plates at 37° C. and 5% CO2 for 24 hours. Fix the cells by adding 14% para-formaldehyde (10 μL) for 30 minutes at room temperature. Wash cells once with PBS (20 μL) and incubate with PBS (20 μL) containing 0.5% (v/v) TWEEN® 20 for 1 hour. […]
The following day, wash cells with PBS 0.05% TWEEN® 20 (2×20 μL) and incubate with secondary antibody (20 μL/well) (1:1000 dilution, Goat anti-rabbit IgM ALEXA FLUOR™ 488) in PBS 1% BSA for 105 minutes at room temperature. […] Scan plates with ACUMEN EXPLORER™ [Laser-scanning fluorescence microplate cytometer manufactured by TTP LABTECH LTD] to measure PRα. […]

[1] = Rat oral bioavailability assay; type: in vivo; settings: plasma, Sprague-Dawley rats, IV 1 mg/kg, PO 10 mg/kg, read-out: oral bioavailability (% F)
Procedure: Rat Oral Bioavailability Assay
Administer the test compound to Sprague-Dawley rats IV at 1 mg/kg (using vehicles of either: 20% CAPTISOL® in 25 mM sodium phosphate buffer, pH2 quantum satis; or 25% DMA, 15% EtOH, 10% propylene glycol, 25% 2-pyrrolidone, and 25% purified water) and PO at 10 mg/kg (using a vehicle of 1% hydroxyethyl cellulose, 0.25% polysorbate 80, 0.05% Antifoam 1510-US, and purified water quantum satis). Collect serial blood samples at 0.08, 0.25, 0.5, 1, 2, 4, 8, and 12 hours post dose for IV bolus and at 0.25, 0.5, 1, 2, 4, 8, and 12 hours post dose after oral administration. After treatment with an EDTA […], obtain plasma by centrifugation and store at −70° C. until analysis by LC-MS/MS. Determine the test compound concentration in plasma and upload into the Watson LIMS™ system where noncompartmental analysis is used to calculate Area Under the Curve (AUC) for both IV and PO arms. Calculate oral bioavailability (% F) via the following equation, % F=(AUCPO×DoseIV)/(AUCIV×DosePO)×100.

Sequence of ERα receptor (P03372 whole entry): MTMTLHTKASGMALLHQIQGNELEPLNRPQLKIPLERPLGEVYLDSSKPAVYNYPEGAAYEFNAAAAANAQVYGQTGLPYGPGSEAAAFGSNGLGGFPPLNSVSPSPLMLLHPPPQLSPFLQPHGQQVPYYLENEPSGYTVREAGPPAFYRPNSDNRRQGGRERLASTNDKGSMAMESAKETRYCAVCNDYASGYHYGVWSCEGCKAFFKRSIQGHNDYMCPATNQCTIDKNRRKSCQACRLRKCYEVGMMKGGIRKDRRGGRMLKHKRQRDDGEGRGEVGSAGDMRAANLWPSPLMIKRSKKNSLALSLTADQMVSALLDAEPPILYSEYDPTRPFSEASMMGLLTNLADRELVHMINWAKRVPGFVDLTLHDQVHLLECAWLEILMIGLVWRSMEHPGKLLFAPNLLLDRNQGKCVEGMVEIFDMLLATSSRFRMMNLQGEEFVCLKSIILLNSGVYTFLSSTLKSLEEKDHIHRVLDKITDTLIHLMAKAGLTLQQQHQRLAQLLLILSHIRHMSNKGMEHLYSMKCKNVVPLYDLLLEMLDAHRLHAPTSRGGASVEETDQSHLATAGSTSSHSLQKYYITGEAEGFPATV

Row | agonistic activity (PRα induction) (ERα receptor) | bioavailability [1] [%] | Compound
1 | no significant agonistic activity | – | Oc1ccc2c3c(cnc2c1)-c1ccc(C(F)(F)F)cc1OC3c1ccc(OCCN2CC(CF)C2)cc1 (racemic) [Example 1, Racemic 5-(4-{2-[3-(Fluoromethyl)azetidin-1-yl]ethoxy}phenyl)-8-(trifluoromethyl)-5H-[1]benzopyrano[4,3-c]quinolin-2-ol]
2 | no significant agonistic activity | – | Oc1ccc2c3c(cnc2c1)-c1ccc(C(F)(F)F)cc1OC3c1ccc(OCCN2CC(CF)C2)cc1 (single isomer, unassigned; isomer 1) [Example 1A, 5-(4-{2-[3-(Fluoromethyl)azetidin-1-yl]ethoxy}phenyl)-8-(trifluoromethyl)-5H-[1]benzopyrano[4,3-c]quinolin-2-ol, Isomer 1]
3 | no significant agonistic activity | ~50 | Oc1ccc2c3c(cnc2c1)-c1ccc(C(F)(F)F)cc1OC3c1ccc(OCCN2CC(CF)C2)cc1 (single isomer, unassigned; isomer 2) [Example 1B, 5-(4-{2-[3-(Fluoromethyl)azetidin-1-yl]ethoxy}phenyl)-8-(trifluoromethyl)-5H-[1]benzopyrano[4,3-c]quinolin-2-ol, Isomer 2]
